Results reported in patent US5182387A, “Bis-dibenzoazepine compounds” (Merrell Dow Pharmaceuticals Inc., priority 1991, dated 1993).
Converted amounts (≈) assume the structure as drawn. Where a name gives a salt, the structure may show the parent alone. Read-outs that look alike come from different tables or passages of the source.

Tests used:
[1] = system: multidrug resistant Plasmodium falciparum clone W-2; experiment: reversal of the chloroquine resistance in clone W-2; format: cell-based
Description: (§1) Referring to Table 2, the antimalarial activity of compounds of formula 1 were tested using the multidrug resistant Plasmodium falciparum clone W-2. The methods for the growth of the malaria parasite, the testing of drugs for antimalarial effects and the clone are described in Science 242, 1301-1303 1988.

[2] = system: multidrug resistant Plasmodium falciparum clone W-2; experiment: antimalarial activity using multidrug resistant Plasmodium falciparum clone W-2; format: cell-based; conditions: read-out: IC50, ng/ml CLONE W-2
Description: as §1

[3] = system: chloroquine-sensitive strain of Plasmodium falciparum (clone D6); experiment: antimalarial activity against chloroquine-sensitive strain of Plasmodium falciparum (clone D6); format: cell-based
Description: As shown by Table 1, the compounds of the present invention have antimalarial activity on their own without other antimalarial agents. This antimalarial activity can be tested using a number of methods. For example, the compounds of formula 1 listed in Table 1 were tested for antimalarial activity against chloroquine-sensitive strain of Plasmodium falciparum (clone D6).
The methods for the growth of the malaria parasite, the testing of drugs for antimalarial effects and the clone are described in Science 242, 1301-1303 1988.

[4] = system: chloroquine-resistant Plasmodium falciparum; experiment: synergistic effect with chloroquine, isobologram analysis; format: cell-based; conditions: chloroquine-resistant P. falciparum, data not shown
Description: Isobologram analysis was carried out according to the method of Martin, et al., (1987) Science 235, 899-901 and Berenbaum, (1978) Journal of Infectious Diseases 137, 122-130 (data not shown).

Plasmodium falciparum = conditions: as described in Science 242, 1301-1303 1988; cited from earlier work
[5] = 50% reversal of the chloroquine resistance in clone W-2, read-out: Conc. in ng/ml for 50% Reversal of chloroquine
[6] = D6, read-out: IC50, ng/ml CLONE D6
[7] = chloroquine-sensitive clone D6, read-out: IC50, ng/ml CLONE D6

| Compound | EC50 [1, 5] [ng/mL] | IC50 [2] [ng/mL] | IC50 [3, 6] [ng/mL] | synergistic effect with antimalarial agents [4] | IC50 [3, 7] [ng/mL] | EC50 ([1]; read-out: Conc. in ng/ml for 50% Reversal of chloroquine) [ng/mL] | utility in reversing chloroquine resistance (Plasmodium falciparum) |
| --- | --- | --- | --- | --- | --- | --- | --- |
| CN(CCCN(C)CCCN1c2ccccc2CCc2ccccc21)CCCN1c2ccccc2CCc2ccccc21 [Example 3, N,N'-Bis[3-(10,11-dihydro-5H-dibenzo[b,f]azepino)propyl]-N,N'-dimethylpropanediamine Maleate] | 72 | 385 |  |  |  |  |  |
| CN(CCCCCN(C)CCCN1c2ccccc2CCc2ccccc21)CCCN1c2ccccc2CCc2ccccc21 [Example 5, N,N'-Bis[3-(10,11-dihydro-5H-dibenzo[b,f]azepino)propyl]-N,N'-dimethylpentanediamine Maleate] | 56 | 180 |  |  |  |  |  |
| CCN(CC)CCCC(C)Nc1ccnc2cc(Cl)ccc12 (centres unmarked) [chloroquine, reference compound] |  | 160 (≈ 0.5 µM) | 7 (≈ 0.0219 µM) |  |  |  |  |
| CN(CCCN1c2ccccc2CCc2ccccc21)CCN(C)CCCN1c2ccccc2CCc2ccccc21 [Example 2, N,N'-Bis[3-(10,11-dihydro-5H-dibenzo[b,f]azepino)propyl]-N,N'-dimethylethanediamine Maleate] | > 200 | 1510 |  |  |  |  |  |
| CN(CCCCN(C)CCCN1c2ccccc2CCc2ccccc21)CCCN1c2ccccc2CCc2ccccc21 [Example 4, N,N'-Bis[3-(10,11-dihydro-5H-dibenzo[b,f]azepino)propyl]-N,N'-dimethylbutanediamine Fumarate] | 14 | 56 |  | synergistic effect with chloroquine | 240 |  |  |
| CNCCCN1c2ccccc2CCc2ccccc21 [desipramine, reference compound] |  | 300 (≈ 1.13 µM) | 15000 (≈ 56.3 µM) |  |  | 35 | shown to have utility in reversing chloroquine resistance |
| CN(CCCN1c2ccccc2CCc2ccccc21)CC(=O)N(C)CCCN1c2ccccc2CCc2ccccc21 [Example 1, N,N'-Bis[3-(10,11-dihydro-5H-dibenzo[b,f]azepino)propyl]-N,N'-dimethylacetamide Oxalate] | > 200 | 3570 |  |  |  |  |  |
| c1ccc2c(c1)CCc1ccccc1N2CCCNCCCCNCCCN1c2ccccc2CCc2ccccc21 [Example 8, N,N'-Bis[3-(10,11-dihydro-5H-dibenzo[b,f]azepino)propyl]butanediamine Maleate] | 105 | 110 |  |  | 48 |  |  |
| CN(CCCCCCN(C)CCCN1c2ccccc2CCc2ccccc21)CCCN1c2ccccc2CCc2ccccc21 [Example 6, N,N'-Bis[3-(10,11-dihydro-5H-dibenzo[b,f]azepino)propyl]-N,N'-dimethylhexanediamine Fumarate] | 52 | 140 |  |  | 210 |  |  |
| c1ccc2c(c1)CCc1ccccc1N2CCCN1CCN(CCCN2c3ccccc3CCc3ccccc32)CC1 [Example 9, 1,4-Bis[3-(10,11-dihydro-5H-dibenzo[b,f]azepino)propyl]piperazine Maleate] | > 200 | > 5000 |  |  |  |  |  |
